{"source": "ChEMBL document CHEMBL1122204", "about": "(J Med Chem, 1982)", "data": [{"test": "(§1) Approximate pKa value of compound was determined", "format": "physicochemical", "settings": "not given", "values": [{"smiles": "CC/C(=C(\\c1ccccc1)c1ccc(OCCn2cccc2)cc1)c1ccccc1", "Approx. pKa": -3.8}]}, {"test": "as §1", "format": "physicochemical", "settings": "read-out: Approx. pKa", "values": [{"smiles": "CC/C(=C(\\c1ccccc1)c1ccc(OCCN2CCCC2)cc1)c1ccccc1", "pKa": 11.3}, {"smiles": "CC/C(=C(\\c1ccccc1)c1ccc(OCCN2CCN(C)CC2)cc1)c1ccccc1", "pKa": 9.8}, {"smiles": "CC/C(=C(\\c1ccccc1)c1ccc(OCCN2CCOCC2)cc1)c1ccccc1", "pKa": 8.7}, {"smiles": "CC/C(=C(\\c1ccccc1)c1ccc(OCCCN2CCCC2)cc1)c1ccccc1", "pKa": 11.3}, {"smiles": "CC/C(=C(\\c1ccccc1)c1ccc(OCCN=C(N)N)cc1)c1ccccc1", "pKa": 13.7}, {"smiles": "CC/C(=C(\\c1ccccc1)c1ccc(OCCN2CCCCC2)cc1)c1ccccc1", "pKa": 11.2}, {"smiles": "CC/C(=C(\\c1ccccc1)c1ccc(OCCN(CC)CC)cc1)c1ccccc1", "pKa": 10.9}, {"smiles": "CC/C(=C(\\c1ccccc1)c1ccc(OCCN(C)C)cc1)c1ccccc1", "note": "[TAMOXIFEN]", "pKa": 10.8}]}]}
